Measured values: patent US20260364175A1, “COMPOSITIONS FOR DRUG ADMINISTRATION” (Aegis Therapeutics, LLC, priority 2018, published 2026)
Entries after “also recorded” stand apart in the source; their conditions may differ.

Columns and labels:
[1] = fast-dispersing tablets 50 mg with 1% to 2% alkylsaccharide
blood glucose [2] = test: Oral liraglutide with Intravail A3, blood glucose under dietary sugar challenge; assay type: in vivo, human; details: Intravail A3 (FIG. 11)
Protocol: Procedure was as follows. […] Composition was mixed with disposable plastic dropper. 40 grams of dietary sugar was ingested and 60 minutes allowed to pass. Blood glucose was measured (upper arm just above elbow on left arm) using meter=To. Deposit composition on back of tongue and swallow. Blood glucose level was measured and recorded at T=10, 20, 30, 40, 55, 70, 80 and 90 min.

blood glucose [3] = test: Ocular administration of insulin plus absorption enhancer, blood glucose in anesthetized rats; assay type: in vivo, rat (male Sprague-Dawley)
blood glucose [4] = test: Insulin plus tetradecylmaltoside as eye drops then nose drops, blood glucose in rats; assay type: in vivo, rat
Source text: Tetradecylmaltoside (TDM) in combination with insulin also produced a drop in blood D-glucose levels when administered in the form of a drop intranasally as well as via a drop by the ocular route. […] Thus, intranasal delivery and administration of the alkyl saccharide with drug results in lowering of blood glucose levels.

human nasal epithelium = test: Nasal mucosa irritation
[5] = tested on: Aspergillus niger (ATCC No. 16404); test: Antimicrobial activity, log reduction of cfu; assay type: cell-based
Source text: (§1) The viable microorganisms used in the invention were not more than five passages removed from the original ATCC culture. As described herein, one passage is defined as the transfer of organisms from an established culture to fresh medium and all transfers are counted.
(§2) Cultures received from the ATCC are resuscitated according to the directions provided by the ATTC. Cells grown in broth were pelleted by centrifugation, resuspended in 1/20th the volume of fresh maintenance broth, and combined with an equal volume of 20% (v/v in water) sterile glycerol. Cells grown on agar were scraped from the surface into the maintenance broth also containing 10% glycerol broth. Small aliquots of the suspension were dispensed into sterile vials and the vials were stored in liquid nitrogen or in a mechanical freezer at a temperature no higher than about −50 °C. When a fresh seed-stock vial was required, it was removed and used to inoculate a series of working stock cultures. These working stock cultures were then used periodically (each day in the case of bacteria and yeast) to start the inoculum culture.
(§3) The culture conditions for the inoculum culture is substantially as described in Table IV. For example, suitable media can include but is not limited to, Soybean-Casein Digest or Sabouraud Dextrose Agar Medium. […]
(§4) The suspension should be refrigerated if it is not used within 2 hours. To confirm the initial cfu per mL estimate, the number of cfu per mL in each suspension was determined using the conditions of media and microbial recovery incubation times listed in Table IV (e.g., from about 3 to about 7 days). This value serves to calibrate the size of inoculum used in the test. The bacterial and yeast suspensions were used within 24 hours of harvest; whereas the fungal preparation can be stored under refrigeration for up to 7 days.
(§5) To determine which alkylglycoside formulations have antibacterial activity, the formulations were prepared in phosphate buffered saline (PBS) at pH 7. As a source of nutrition, either 1.5 mg/mL bovine serum albumin (BSA; see Tables V and VI) or 1 mg/mL of PYY was added (see Table VII) to the medium. BSA (CAS Number: 9048-46-8) was obtained from Sigma-Aldrich, St. Louis, MO, USA, n-dodecyl-4-O-α-D-glucopyranosyl-β-D-glucopyranoside and n-tetradecyl-4-O-α-D-glucopyranosyl-β-D-glucopyranoside were obtained from Anatrace Inc., Maumee, OH, USA, and PYY was obtained from Bachem California Inc., Torrance, CA, USA.
(§6) Antibacterial activity of the alkylglycosides were conducted in four sterile, capped bacteriological containers of suitable size into which a sufficient volume of alkylglycoside solution had been transferred. Each container was inoculated with one of the prepared and standardized inoculums and mixed. The volume of the suspension inoculum was between about 0.5% and about 1.0% of the volume of the alkylglycoside solution. […]. To determine the level of inhibition of growth, or reduction of growth based on a logarithmic scale, the initial concentration of viable microorganisms in each test preparation was estimated based on the concentration of microorganisms in each of the standardized inoculum as determined by the plate-count method. The inoculated containers were then incubated at about 22.5 °C±2.5. The growth or non-growth of the microorganisms in each culture/container were again determined at day 14 and day 28. The number of cfu present in each calculation was determined by the plate-count procedure standard in the art for the applicable intervals. The change in the orders of magnitude of bacterium and/or fungi was then determined by subtracting the first calculated log 10 values of the concentrations of cfu per mL present at the start or beginning (e.g., day 0), from the log 10 values of the concentration of cfu per mL for each microorganism at the applicable test intervals (e.g., day 14 and day 28; see Tables V, VI and VII).

[6] = tested on: Candida albicans (ATCC No. 10231); test: Antimicrobial activity, log reduction of cfu; assay type: cell-based
Source text: as §1, §2, §3, §4, §5, §6

[7] = tested on: Staphylococcus aureus (ATCC No. 6538); test: Antibacterial activity, log reduction of cfu; assay type: cell-based
Source text: as §1, §2, §3, §4, §5, §6

[8] = tested on: Escherichia coli (ATCC No. 8739); test: Antibacterial activity, log reduction of cfu; assay type: cell-based; details: 0.2%; day 28
Source text: as §1, §2, §3, §4, §5, §6

[9] = whole-swallowed tablet, oral; cited from earlier work
[10] = 10 mg fast-dispersing tablet with alkylsaccharide, buccal
clinical = details: human, in vivo
[11] = cited from earlier work
[12] = Raloxifene pharmacokinetics; assay type: in vivo
Protocol: The recommended dosage is one 60 mg tablet daily. […]. […].

blood glucose [13] = details: previous studies; cited from earlier work
blood glucose [14] = test: Ocular administration of glucagon plus surfactant, blood glucose in rats; assay type: in vivo, rat; details: eye drops, 0.5% surfactant plus glucagon (30 μg)
[15] = Oral phenylephrine tablet bioavailability in a canine model; assay type: in vivo, dog; details: compressed tablets
Protocol: In a canine model, subjects were dosed orally with various phenylephrine (PE) tablet formulations, and blood samples were taken to determine the rate of parent phenyl ethyl phenylephrine absorption. Blood levels of parent phenylephrine were measured. Three subject groups were created with each alkylsaccharide test group containing five subjects in each test group. All subject groups received 10 mg of phenylephrine as a single tablet. Each subject was in the fasting state for overnight and two hours post dose. Blood samples were taken at pre-dose, 5, 10, 15, 30, 45 min., 1, 2, and 3 hours.
Comparator was the standard 30 mg (total weight including excipients) phenylephrine tablet was no absorption enhancer. Group number 2 tablets contain the alkylsaccharide designated A3, which is n-dodecyl-beta-D-maltoside in the amounts of 2.5 mg, 5 mg, and 7.5 mg, respectively. Group number three tablets contain the alkylsaccharide designated B3, which is sucrose monododecanoate, in the amounts of 5 mg, 10 mg, and 20 mg, respectively.

[16] = cited from earlier work; remark: listed apart in the source
[17] = aqueous liquid with SDS and an organic acid; cited from earlier work
food intake = details: injection, on average; cited from earlier work
[18] = formulations specifically optimized for oral delivery; cited from earlier work
mucociliary surfaces = details: far below concentrations used in intranasal formulations; cited from earlier work

CN(C)CCOC(c1ccccc1)c1ccccc1 [Diphenhydramine]
onset of action [1]: more rapid onset of action

CCCCCCCCCCCCCCCC(=O)N[C@@H](CCC(=O)NCCCC[C@H](NC(=O)[C@H](C)NC(=O)[C@H](C)NC(=O)[C@H](CCC(N)=O)NC(=O)CNC(=O)[C@H](CCC(=O)O)NC(=O)[C@H](CC(C)C)NC(=O)[C@H](Cc1ccc(O)cc1)NC(=O)[C@H](CO)NC(=O)[C@H](CO)NC(=O)[C@@H](NC(=O)[C@H](CC(=O)O)NC(=O)[C@H](CO)NC(=O)[C@@H](NC(=O)[C@H](Cc1ccccc1)NC(=O)[C@@H](NC(=O)CNC(=O)[C@H](CCC(=O)O)NC(=O)[C@H](C)NC(=O)[C@@H](N)Cc1cnc[nH]1)[C@@H](C)O)[C@@H](C)O)C(C)C)C(=O)N[C@@H](CCC(=O)O)C(=O)N[C@@H](Cc1ccccc1)C(=O)N[C@H](C(=O)N[C@@H](C)C(=O)N[C@@H](Cc1c[nH]c2ccccc12)C(=O)N[C@@H](CC(C)C)C(=O)N[C@H](C(=O)N[C@@H](CCCNC(=N)N)C(=O)NCC(=O)N[C@@H](CCCNC(=N)N)C(=O)NCC(=O)O)C(C)C)[C@@H](C)CC)C(=O)O [Liraglutide]
dose response (blood glucose [2]): positive dose response

CCCCCCCCCCCCCCO[C@@H]1O[C@H](CO)[C@@H](O[C@H]2O[C@H](CO)[C@@H](O)[C@H](O)[C@H]2O)[C@H](O)[C@H]1O [Tetradecyl Maltoside, n-tetradecyl-4-O-α-D-glucopyranosyl-β-D-glucopyranoside]
effect on blood glucose / ocular insulin absorption (blood glucose [3]; 0.5% enhancer with 0.2% insulin eye drops): effective as absorption enhancers | effect on ocular insulin absorption (blood glucose [3]; […] enhancer with insulin eye drops): effective as absorption enhancers | effect on ocular insulin absorption (alkyl chain length comparison) (blood glucose [3]; alkylmaltosides with insulin eye drops): more effective | Blood Glucose (blood glucose [4]; 0 min, insulin eye drops with […]): 322 mg/dL | effect on blood glucose (blood glucose [4]; 0.2% insulin eye drops with […] TDM): prompt and prominent drop in blood glucose levels | Blood Glucose (blood glucose [4]; 15 min, insulin eye drops with […]): 335 mg/dL | Blood Glucose (blood glucose [4]; 30 min, insulin eye drops with […]): 276 mg/dL | Blood Glucose (blood glucose [4]; 45 min, insulin eye drops with […]): 221 mg/dL | Blood Glucose (blood glucose [4]; 60 min, insulin eye drops with […]): 212 mg/dL | Blood Glucose (blood glucose [4]; 75 min, insulin eye drops with […]): 167 mg/dL | Blood Glucose (blood glucose [4]; 90 min, insulin eye drops with […]): 174 mg/dL | Blood Glucose (blood glucose [4]; 120 min, insulin eye drops with […]): 208 mg/dL | Blood Glucose (blood glucose [4]; 135 min, after insulin nose drops with 0.5%): 129 mg/dL | Blood Glucose (blood glucose [4]; 150 min, after insulin nose drops with 0.5%): 74 mg/dL | Blood Glucose (blood glucose [4]; 165 min, after insulin nose drops with 0.5%): 76 mg/dL | Blood Glucose (blood glucose [4]; 180 min, after insulin nose drops with 0.5%): 68 mg/dL | Blood Glucose (blood glucose [4]; […], insulin eye drops with […]): 167 mg/dL | irritation of the nasal mucosa (human nasal epithelium; […] in OTC nasal saline, daily, 33 days): no observable irritation of the nasal mucosa | growth from initial count ([5]; 0.2%, day 28): No growth | log reduction at 0.2 % ([5]; Aspergillus niger, ATCC16404, 336 h): 0.5 | log reduction at 0.2 % ([6]; ATCC10231, 336 h): 3 | log reduction at 0.2 % ([6]; ATCC10231, 672 h): ≥ 5.4 | log reduction at 0.2 % ([7]; ATCC6538, 336 h): ≥ 5 | log reduction at 0.2 % ([7]; ATCC6538, 672 h): ≥ 5 | growth from initial count [8]: No growth

Cc1cc2c(s1)Nc1ccccc1N=C2N1CCN(C)CC1 [olanzapine]
time to peak concentrations [9]: approximately 6 hours | first-pass effect metabolism [10]: substantially reduced first-pass effect metabolism | Tmax (clinical; 10 mg): 0.25 to 0.75 h | Tmax (clinical; po): ~6 h | hepatic extraction ratio (clinical; po): ~0.4

O=C(c1ccc(OCCN2CCCCC2)cc1)c1c(-c2ccc(O)cc2)sc2cc(O)ccc12 [raloxifene]
water solubility [11]: approx. 0.25 mg/L | circulating inactive raloxifene glucuronide ([12]; fast-dispersing tablet 10 mg or less, 0.5% to 5% dodecyl maltoside, buccal): less circulating inactive raloxifene glucuronide | bioavailability ([12]; human, in vivo, fast-dispersing 60 mg tablet (without alkylsaccharide), read-out: absolute bioavailability): ~2%

CC1(C)[C@@H](O[C@@H]2OC[C@H](O[C@@H]3OC[C@@H](O)[C@H](O)[C@H]3O)[C@H](O[C@H]3O[C@H](CO)[C@@H](O)[C@H](O)[C@H]3O)[C@H]2O[C@@H]2O[C@H](CO)[C@@H](O)[C@H](O)[C@H]2O[C@H]2O[C@H](CO)[C@@H](O)[C@H](O)[C@H]2O)CC[C@]2(C)[C@H]3CCC45OCC6(CC[C@@](C)(C=O)C[C@@H]64)[C@H](O)C[C@@]5(C)[C@]3(C)CC[C@@H]12 (stereo partly shown) [saponin, reference compound]
stimulation of insulin absorption from the eye (blood glucose [13]): stimulated | effect on ocular glucagon absorption / blood D-glucose (blood glucose [14]): effective; also recorded: rises significantly

CCCCCCCCCCCC(=O)OC[C@H]1O[C@H](O[C@]2(CO)O[C@H](CO)[C@@H](O)[C@@H]2O)[C@H](O)[C@@H](O)[C@@H]1O [sucrose dodecanoate, sucrose monododecanoate]
increase of oral bioavailability of phenylephrine [15]: up to 50% | irritation of nasal epithelium (human nasal epithelium; 47 days): no observable irritation was detected | amount consumable without observable adverse effect ([16]; 70 kilogram person): 1400-2100 grams per day | acceptable daily intake for humans ([16]; about 1% of the NOAEL): 14-21 grams per day | NOAEL ([16]; in vivo): 20-30 grams/kilogram/day

Calcitonin: calcitonin
stability [17]: at least 6 months

PYY: gut hormone fragment peptide PYY3-36
reduction of food eaten (food intake): 30%

Parathyroid hormone: parathyroid hormone
oral bioavailability [18]: 2.1%

benzalkonium chloride
disruption of mucociliary surfaces (mucociliary surfaces): significant disruption of the mucociliary surfaces
